SMILES strings stand for the structures.

47 compounds from patent US20050197364A1, “Amide compounds as ion channel ligands and uses thereof” (priority 2003, published 2005) can be followed below.

The experiment concerns VR1 receptor. The experiment is described as follows: High throughput calcium imaging assay (Fura2, Flex Station) of VR1 antagonists, pH 5.1 stimulus. Format: cell-based. To be noted: 1 uM compound; inhibition of calcium ion influx induced by capsaicin stimulation.
Description: Therefore the functional activity of compounds at the VR1 receptor may be determined by measuring changes in intracellular calcium levels in 293 cells expressing capsaicin-insensitive VR1 receptor variants. A dual wavelength ratiometric dye, Fura2, was used as an indicator of relative levels of calcium ions in a 96 well format using a bench top scanning fluorometer with integrated fluidics and temperature control (Flex Station, Molecular Devices).
293 cells were grown on PDL coated 96-well black-walled plates, in the presence of a DMEM medium containing 5% Penstrep, 5% Glutamax, 200 ug/mL Hygromycin, 5 μg/mL Blasticide and 10% heat inactivated FBS. Prior to assay, the cells were loaded with 5 μg/mL Fura2 in normal saline solution at 37° C. for 40 minutes. Cells were then washed with normal saline to remove the dye.
The assay consists of two stages; a pre-treatment phase followed by a treatment phase.
50 μl of a compound solution was added to the cells (Pre-treatment). Immediately following, 50 μl of the test compound in a saline solution at pH 5.1 was added. Fura2 was excited at 340 and 380 nM to indicate relative calcium concentration. Changes in wavelength measurements were made throughout the course of the experiment in 4 second intervals over a period of 3 minutes. Responses were measured as peak fluorescence ratio after test compound addition minus baseline fluorescence ratio prior to pre-treatment and were calculated using SoftMaxPro softwareData were expressed as percentage inhibition calculated using Excel as follows: [formula]
Regarding `O=C(Nc1ccncc1)c1ccc(-c2ncccc2Cl)c(F)c1` [Compound 140], the “% Inhibition @ 1 uM” value is listed as “+ + + + (compound exhibited 75% or greater inhibition of calcium ion influx induced by capsaicin stimulation)”.

For `O=C(Nc1ccc(C2CCCCC2)cc1)c1ccc(-c2ncccc2Cl)cn1` [Compound 303], the “% Inhibition @ 1 uM” value is recorded as “+ + + + (“+ + + +” compound exhibited 75% or greater inhibition of calcium ion influx induced by capsaicin stimulation.)”.

For `COc1cc(NC(=O)c2ccc(-c3ncccc3Cl)cn2)cc(OC)c1OC` [Compound 339], the “% Inhibition @ 1 uM” value is listed as “+ (“+” compound exhibited 0-25% inhibition of calcium ion influx induced by capsaicin stimulation.)”. The value for `COc1cc(C(=O)Nc2ccc(F)cc2[N+](=O)[O-])ccc1-c1ncccc1Cl` [Compound 210] was “+ + + + (“+ + + +” compound exhibited 75% or greater inhibition of calcium ion influx induced by capsaicin stimulation.)”. The value for `CCCOc1ccc(NC(=O)c2ccc(-c3ncccc3Cl)cc2)cc1` [Compound 274] was “+ (“+” compound exhibited 0-25% inhibition of calcium ion influx induced by capsaicin stimulation.)”; that for `O=C(Nc1cccnc1)c1ccc(-c2ncccc2Cl)cc1` [Compound 8] was “+ + + + (compound exhibited 75% or greater inhibition of calcium ion influx induced by capsaicin stimulation)”; that for `O=C(Nc1ccccc1O)c1ccc(-c2ncccc2Cl)cc1F` [Compound 67] was “+ (compound exhibited 0-25% inhibition of calcium ion influx induced by capsaicin stimulation)”. To `O=C(Nc1ccc(OC(F)(F)F)cc1)c1ccc(-c2ncccc2Cl)c(F)c1` [Compound 175] belongs “+ + (compound exhibited 25-50% inhibition of calcium ion influx induced by capsaicin stimulation)”; to `O=C(Nc1ccc2ncccc2c1)c1ccc(-c2ncccc2Cl)cn1` [Compound 327], “+ (“+” compound exhibited 0-25% inhibition of calcium ion influx induced by capsaicin stimulation.)”; to `CCOC(=O)c1cccc(NC(=O)c2ccc(-c3ncccc3Cl)cc2)c1` [Compound 269], “+ (“+” compound exhibited 0-25% inhibition of calcium ion influx induced by capsaicin stimulation.)”. With `O=C(Nc1ccc(Cl)c(C(F)(F)F)c1)c1ccc(-c2ncccc2Cl)cc1` [Compound 20], the “% Inhibition @ 1 uM” value was “+ + + (compound exhibited 50-75% inhibition of calcium ion influx induced by capsaicin stimulation)”.

Take `O=C(Nc1ccc(C(F)(F)F)cc1)c1ccc(-c2ncccc2Cl)cn1` [Compound 308]: the “% Inhibition @ 1 uM” value is “+ (“+” compound exhibited 0-25% inhibition of calcium ion influx induced by capsaicin stimulation.)”. The value for `O=C(Nc1ccccc1Cl)c1ccc(-c2ncccc2Cl)cc1` [Compound 15] was “+ (compound exhibited 0-25% inhibition of calcium ion influx induced by capsaicin stimulation)”; that for `COc1ccc(NC(=O)c2ccc(-c3ncccc3Cl)c(F)c2)cc1O` [Compound 170] was “+ + (compound exhibited 25-50% inhibition of calcium ion influx induced by capsaicin stimulation)”. To `O=C(Nc1ncc(C(F)(F)F)cc1Cl)c1ccc(-c2ncccc2Cl)cc1F` [Compound 98] belongs “+ (compound exhibited 0-25% inhibition of calcium ion influx induced by capsaicin stimulation)”. To `O=C(Nc1ccc2cn[nH]c2c1)c1ccc(-c2ncccc2Cl)cc1` [Compound 273] belongs “+ + (“+ +” compound exhibited 25-50% inhibition of calcium ion influx induced by capsaicin stimulation.)”; to `COc1cc(C(=O)Nc2cccc(Cl)c2Cl)ccc1-c1ncccc1Cl` [Compound 199], “+ + + + (“+ + + +” compound exhibited 75% or greater inhibition of calcium ion influx induced by capsaicin stimulation.)”; to `COc1cccc(NC(=O)c2ccc(-c3ncccc3Cl)cc2)c1` [Compound 2], “+ (compound exhibited 0-25% inhibition of calcium ion influx induced by capsaicin stimulation)”. As for `COc1cc(C(=O)Nc2ccc(Cl)c(C(=O)O)c2)ccc1-c1ncccc1Cl` [Compound 242], the “% Inhibition @ 1 uM” value was “+ + + + (“+ + + +” compound exhibited 75% or greater inhibition of calcium ion influx induced by capsaicin stimulation.)”. To `Cc1ccnc(NC(=O)c2ccc(-c3ncccc3Cl)c(F)c2)c1` [Compound 145] belongs “+ + + + (compound exhibited 75% or greater inhibition of calcium ion influx induced by capsaicin stimulation)”; to `O=C(Nc1ccc(C(F)(F)F)cn1)c1ccc(-c2ncccc2Cl)cc1F` [Compound 97], “+ (compound exhibited 0-25% inhibition of calcium ion influx induced by capsaicin stimulation)”. The value for `N#Cc1cccc(NC(=O)c2ccc(-c3ncccc3Cl)c(F)c2)c1` [Compound 124] was “+ + + + (compound exhibited 75% or greater inhibition of calcium ion influx induced by capsaicin stimulation)”; that for `CC(C)Oc1cccc(NC(=O)c2ccc(-c3ncccc3Cl)c(F)c2)c1` [Compound 177] was “+ (compound exhibited 0-25% inhibition of calcium ion influx induced by capsaicin stimulation)”; that for `O=C(Nc1ccc2[nH]ccc2c1)c1ccc(-c2ncccc2Cl)cc1` [Compound 4] was “+ + + + (compound exhibited 75% or greater inhibition of calcium ion influx induced by capsaicin stimulation)”. To `COc1cc(C(=O)Nc2ccc3ccccc3c2)ccc1-c1ncccc1Cl` [Compound 236] belongs “+ + + + (“+ + + +” compound exhibited 75% or greater inhibition of calcium ion influx induced by capsaicin stimulation.)”; to `CCN(CC)CCOC(=O)c1ccc(NC(=O)c2ccc(-c3ncccc3Cl)cc2)cc1` [Compound 265], “+ (“+” compound exhibited 0-25% inhibition of calcium ion influx induced by capsaicin stimulation.)”; to `CC(C)(C)c1ccc(NC(=O)c2ccc(-c3ncccc3Cl)cc2F)cc1` [Compound 86], “+ (compound exhibited 0-25% inhibition of calcium ion influx induced by capsaicin stimulation)”. Turning to `Cc1cccnc1NC(=O)c1ccc(-c2ncccc2Cl)cc1` [Compound 48], the “% Inhibition @ 1 uM” value was “+ + (compound exhibited 25-50% inhibition of calcium ion influx induced by capsaicin stimulation)”. The value for `COc1cc(C(=O)Nc2ccc(-c3cnc[nH]3)cc2)ccc1-c1ncccc1Cl` [Compound 260] was “+ + + (“+ + +” compound exhibited 50-75% inhibition of calcium ion influx induced by capsaicin stimulation.)”; that for `COc1cc(NC(=O)c2ccc(-c3ncccc3Cl)cn2)cc(C(F)(F)F)c1` [Compound 311] was “+ (“+” compound exhibited 0-25% inhibition of calcium ion influx induced by capsaicin stimulation.)”. To `O=C(Nc1ccc2c(c1)OCO2)c1ccc(-c2ncccc2Cl)cc1` [Compound 34] belongs “+ (compound exhibited 0-25% inhibition of calcium ion influx induced by capsaicin stimulation)”; to `COc1cc(C(=O)NC(C)(C)C)ccc1-c1ncccc1Cl` [Compound 187], “+ (compound exhibited 0-25% inhibition of calcium ion influx induced by capsaicin stimulation)”. To `O=C(Nc1ccccc1)c1ccc(-c2ncccc2Cl)cn1` [Compound 289] belongs “+ + + + (“+ + + +” compound exhibited 75% or greater inhibition of calcium ion influx induced by capsaicin stimulation.)”. Take `O=C(Nc1ccc(C(F)(F)F)cc1)c1ccc(-c2ncccc2Cl)c(F)c1` [Compound 135]: the “% Inhibition @ 1 uM” value is “+ + (compound exhibited 25-50% inhibition of calcium ion influx induced by capsaicin stimulation)”.

In the case of `O=C(Nc1ccc(Cl)cc1Cl)c1ccc(-c2ncccc2Cl)cc1` [Compound 16], the “% Inhibition @ 1 uM” value is listed as “+ (compound exhibited 0-25% inhibition of calcium ion influx induced by capsaicin stimulation)”. For the compound `N#Cc1cccc(NC(=O)c2ccc(-c3ncccc3Cl)cc2)c1` [Compound 22], the “% Inhibition @ 1 uM” value is reported as “+ (compound exhibited 0-25% inhibition of calcium ion influx induced by capsaicin stimulation)”. Regarding `O=C(Nc1ccc(N2CCNCC2)cc1)c1ccc(-c2ncccc2Cl)cn1` [Compound 317], the “% Inhibition @ 1 uM” value is on record as “+ (“+” compound exhibited 0-25% inhibition of calcium ion influx induced by capsaicin stimulation.)”. To `CC(C)(NC(=O)c1ccc(-c2ncccc2Cl)cc1F)c1ccccc1` [Compound 66] belongs “+ (compound exhibited 0-25% inhibition of calcium ion influx induced by capsaicin stimulation)”. The value for `CCCCc1ccc(NC(=O)c2ccc(-c3ncccc3Cl)c(F)c2)cc1` [Compound 127] was “+ + + + (compound exhibited 75% or greater inhibition of calcium ion influx induced by capsaicin stimulation)”; that for `CCCCc1ccc(NC(=O)c2ccc(-c3ncccc3Cl)c(OC)c2)cc1` [Compound 204] was “+ + (“+ +” compound exhibited 25-50% inhibition of calcium ion influx induced by capsaicin stimulation.)”. As to `O=C(Nc1cccc(OC(F)(F)F)c1)c1ccc(-c2ncccc2Cl)c(F)c1` [Compound 176], the “% Inhibition @ 1 uM” value is on record as “+ (compound exhibited 0-25% inhibition of calcium ion influx induced by capsaicin stimulation)”.

In the case of `COc1cc(NC(=O)c2ccc(-c3ncccc3Cl)cc2)cc(C(F)(F)F)c1` [Compound 28], the “% Inhibition @ 1 uM” value is listed as “+ + (compound exhibited 25-50% inhibition of calcium ion influx induced by capsaicin stimulation)”. To `O=C(Nc1cccc(Br)c1)c1ccc(-c2ncccc2Cl)cc1` [Compound 21] belongs “+ (compound exhibited 0-25% inhibition of calcium ion influx induced by capsaicin stimulation)”.

Regarding `COc1cc(C(=O)Nc2ccc(C)cc2C)ccc1-c1ncccc1Cl` [Compound 206], the “% Inhibition @ 1 uM” value is reported as “+ + + + (“+ + + +” compound exhibited 75% or greater inhibition of calcium ion influx induced by capsaicin stimulation.)”. Consider `N#Cc1ccccc1NC(=O)c1ccc(-c2ncccc2Cl)cc1` [Compound 11], for which the “% Inhibition @ 1 uM” value is “+ (compound exhibited 0-25% inhibition of calcium ion influx induced by capsaicin stimulation)”. The value for `CC(C)Oc1cccc(NC(=O)c2ccc(-c3ncccc3Cl)cc2)c1` [Compound 278] was “+ (“+” compound exhibited 0-25% inhibition of calcium ion influx induced by capsaicin stimulation.)”. To `O=C(Nc1cccnc1Cl)c1ccc(-c2ncccc2Cl)cc1` [Compound 30] belongs “+ + (compound exhibited 25-50% inhibition of calcium ion influx induced by capsaicin stimulation)”.
